Assay results reported in patent US11666567B2, “Bromocriptine formulations” (VeroScience LLC, priority 2012, dated 2023).

Test: Volume-based particle size distribution of bromocriptine mesylate by laser diffractometry (Sympatec HELOS)
Type: physicochemical
Conditions: Table 13, micronized material used for Example 9 tablets
Text: The parameters Dv10, Dv50, Dv90 and Dv99 represent the particle size at the 10%, 50%, 90% and 99% points of the cumulative volume undersize particle size distribution. Thus, a “Dv10” for a material represents a particle size wherein 10% of the volume of the material consists of particles having a particle size equal to the Dv10 value or smaller. A “Dv50” for a material represents a particle size wherein 50% of the volume of the material consists of particles having a particle size equal to the Dv50 value or smaller. A “Dv90” for a material represents a particle size wherein 90% of the volume of the material consists of particles having a particle size equal to the Dv90 value or smaller. A “Dv99” for a material represents a particle size wherein 99% of the volume of the material consists of particles having a particle size equal to the Dv99 value or smaller.
The particle size distribution ranges defined herein are based upon measurements made using technology and instruments using laser particle size analysis using the instruments and methods developed by [sequence] GmbH, in particular Sympatec HELOS which can provide particle size analysis of dry and wet samples, i.e., of powders, suspensions, emulsions or sprays and is built to the specifications of ISO 13320 “Particle size analysis—laser diffraction methods.”
Finally, the possible role of the particle size of bromocriptine mesylate used in the manufacturing process was investigated. The volume-based particle size distribution for the bromocriptine mesylate used in preparing the tablet batches was measured by laser diffractometry using a Sympatec HELOS Laser Diffractometer.
Bulk batches of bromocriptine mesylate were micronized using a jet mill under a nitrogen atmosphere at a controlled temperature of 0° C. The volume particle size distribution was measured using a Sympatec HELOS H1013 Laser Diffractometer.

CC(C)C[C@H]1C(=O)N2CCC[C@H]2[C@]2(O)O[C@](NC(=O)[C@@H]3C=C4c5cccc6[nH]c(Br)c(c56)C[C@H]4N(C)C3)(C(C)C)C(=O)N12.CS(=O)(=O)O [Micronized Bromocriptine Mesylate]
% < 1 μm: 9%
% < 10 μm: 98%
% < 15 μm: 100%
